From patent publication US8524738B2, “Quinolinones and quinoxalinones as antibacterial composition” (Toyama Chemical Co., Ltd., priority 2005, dated 2013)
In brackets after ≈: the same amount, converted by molar mass. Where a name gives a salt, the structure may show the parent alone. Read-outs that look alike come from different tables or passages of the source.

Test system: Staphylococcus aureus (S. aureus FDA209P)
Assay: Sensitivity Test 1: antibacterial activity (MIC) by micro-dilution method
Type: cell-based
Method: Test compounds were initially dissolved in dimethylsulfoxide. Antibacterial activities (MICs) of the same compounds were determined by the micro-dilution method as recommended by the Japanese Society of Chemotherapy.
Staphylococcus aureus (S. aureus FDA209P) was used as the test organism. The bacterial cells were grown overnight at 35° C. on Mueller-Hinton agar (MHA) plates. The bacterial cells were then suspended in sterile saline and adjusted to the turbidity of a 0.5 McFarland standard. The inoculum was prepared by 10-fold dilution of this suspension. Approximately 0.005 mL aliquots of the inoculum prepared above were subsequently inoculated into Cation-adjusted Mueller-Hinton broth (CAMHB, 100 μL/well) including the test compounds for overnight incubation at 35° C.

[1] = S. aureus FDA209P, CAMHB, overnight incubation at 35° C., lowest concentration with virtually no growth, read-out: MIC

## O=c1cnc2ccccc2n1CCN1CCC(NCc2ccc3c(c2)OCCO3)CC1 [Example 28, 1-(2-(4-((2,3-dihydro-1,4-benzodioxin-6-ylmethyl)amino)piperidin-1-yl)ethyl)quinoxalin-2(1H)-one hydrochloride]
FDA209P
  MIC: 0.0625 µg/mL

## CCc1ccc(CNC2CCN(CCn3c(=O)cnc4ccc(F)cc43)CC2)cc1 [Example 347, 1-(2-(4-(4-ethylbenzylamino)piperidin-1-yl)ethyl)-7-fluoroquinoxalin-2(1H)-one hydrochloride]
FDA209P
  MIC: 0.0156 µg/mL

## O=c1cnc2ccc(F)cc2n1CCN1CCC(NCc2cc(-c3cccs3)on2)CC1 [Example 351, 7-fluoro-1-(2-(4-((5-(thiophen-2-yl)isoxazol-3-yl)methylamino)piperidin-1-yl)ethyl)quinoxalin-2(1H)-one hydrochloride]
FDA209P
  MIC: 0.0078 µg/mL

## COc1ccc2c(C)cc(=O)n(CCC3(C(N)=O)CCC(NCc4ccc5c(c4)OCCO5)CC3)c2c1 (stereo not shown) [Example 155, 4-((2,3-dihydro-1,4-benzodioxin-6-ylmethyl)amino)-1-(2-(7-methoxy-4-methyl-2-oxoquinolin-1(2H)-yl)ethyl)cyclohexanecarboxamide]
[1]
  MIC: 0.125 µg/mL (≈ 0.247 µM)

## COc1ccc2c(C)cc(=O)n(CCN3CCC(NCCSc4cccs4)CC3)c2c1 [Example 57, 7-methoxy-4-methyl-1-(2-(4-((2-(2-thienylthio)ethyl)amino)piperidin-1-yl)ethyl)quinolin-2(1H)one hydrochloride]
FDA209P
  MIC: 0.0625 µg/mL

## COc1ccc2ncc(=O)n(CCN3CCC(NCc4cc5c(cn4)OCCCO5)CC3)c2c1 [Example 375, hydrochloride]
FDA209P
  MIC: 0.0156 µg/mL

## CCNC(=O)c1cc(=O)n(CCN2CCC(NCc3ccc4c(c3)OCCO4)CC2)c2cc(OC)ccc12 [Example 77, 1-(2-(4-((2,3-dihydro-1,4-benzodioxin-6-ylmethyl)amino)piperidin-1-yl)ethyl)N-ethyl-7-methoxy-2-oxo-1,2-dihydroquinoline-4-carboxamide]
[1]
  MIC: 0.125 µg/mL (≈ 0.24 µM)

## COc1ccc2ncc(=O)n(CCN3CCC(NCc4ccc5c(c4)SCCS5)CC3)c2c1 [Example 370, 1-(2-(4-((2,3-dihydro-1,4-benzodithiin-6-ylmethyl)amino)piperidin-1-yl)ethyl)-7-methoxyquinoxalin-2(1H)-one hydrochloride]
FDA209P
  MIC: 0.0039 µg/mL

## COc1ccc2c(C(N)=O)cc(=O)n(CCN3CCC(NCc4ccc5c(c4)OCCO5)CC3)c2c1 [Example 70, 1-(2-(4-((2,3-dihydro-1,4-benzodioxin-6-ylmethyl)amino)piperidin-1-yl)ethyl)-7-methoxy-2-oxo-1,2-dihydroquinoline-4-carboxamide]
[1]
  MIC: 0.25 µg/mL (≈ 0.508 µM)

## COc1ccc2ncc(=O)n(CCN3CCC(NCc4nc5c(cc4Cl)SCC(=O)N5)CC3)c2c1 [Example 355, 1-(2-(4-((7-chloro-3-oxo-3,4-dihydro-2H-pyrido[3,2-b][1,4]thiazin-6-yl)methylamino)piperidin-1-yl)ethyl)-7-methoxyquinoxalin-2(1H)-one hydrochloride]
FDA209P
  MIC: 0.0156 µg/mL

## CNC(=O)c1cc(=O)n(CCN2CCC(NCc3cc4c(cn3)OCCO4)CC2)c2cc(OC)ccc12 [Example 66, 1-(2-(4-((2,3-dihydro(1,4)dioxino(2,3-c)pyridin-7-ylmethyl)amino)piperidin-1-yl)ethyl)-7-methoxy-N-methyl-2-oxo-1,2-dihydroquinoline-4-carboxamide]
[1]
  MIC: 0.25 µg/mL (≈ 0.493 µM)

## CNC(=O)C1CN(CCn2c(=O)ccc3ccc(OC)cc32)CCC1NCc1ccc2c(c1)OCCO2 (single isomer, unassigned) [Example 176, 4-((2,3-dihydro-1,4-benzodioxin-6-ylmethyl)amino)-1-(2-(7-methoxy-2-oxoquinolin-1(2H)-yl)ethyl)-N-methylpiperidine-3-carboxamide]
[1]
  MIC: 0.0625 µg/mL (≈ 0.123 µM)

## CNC(=O)c1cc(=O)n(CCN2CCC(NCc3cc4ccccc4s3)CC2)c2cc(OC)ccc12 [Example 343, 1-(2-(4-((benzo[b]thiophen-2-yl)methylamino)piperidin-1-yl)ethyl)-7-methoxy-N-methyl-2-oxo-1,2-dihydroquinoline-4-carboxamide hydrochloride]
FDA209P
  MIC: 0.125 µg/mL

## Cc1cc(=O)n(CCN2CCC(NCc3ccc4c(c3)OCCO4)CC2)c2cc(Cl)ccc12 [Example 107, 7-chloro-1-(2-(4-((2,3-dihydro-1,4-benzodioxin-6-ylmethyl)amino)piperidin-1-yl)ethyl)-4-methylquinolin-2(1H)-one hydrochloride]
FDA209P
  MIC: 0.0313 µg/mL

## COc1ccc2c(C(=O)Nc3ccccc3)cc(=O)n(CCN3CCC(NCc4ccc5c(c4)OCCO5)CC3)c2c1 [Example 83, 1-(2-(4-((2,3-dihydro-1,4-benzodioxin-6-ylmethyl)amino)piperidin-1-yl)ethyl)-7-methoxy-2-oxo-N-phenyl-1,2-dihydroquinoline-4-carboxamide]
[1]
  MIC: 0.0625 µg/mL (≈ 0.11 µM)

## COc1ccc2ccc(=O)n(CCCC3(C(=O)O)CCN(CCSc4cccc(F)c4)CC3)c2c1 [Example 51, 1-(2-((3-fluorophenyl)thio)ethyl)-4-(3-(7-methoxy-2-oxoquinolin-1(2H)-yl)propyl)piperidine-4-carboxylic acid]
[1]
  MIC: 0.125 µg/mL (≈ 0.251 µM)

## COc1ccc2ncc(=O)n(CCN3CCC(NCc4cc5ccccc5s4)CC3)c2c1 [Example 357, 1-(2-(4-((benzo[b]thiophen-2-yl)methylamino)piperidin-1-yl)ethyl)-7-methoxyquinoxalin-2(1H)-one hydrochloride]
FDA209P
  MIC: 0.0156 µg/mL

## CNC(=O)c1cc(=O)n(CCN2CCC(NCC#Cc3ccccc3)CC2)c2cc(OC)ccc12 [Example 344, 7-methoxy-N-methyl-2-oxo-1-(2-(4-(3-phenyl-2-propyn-1-ylamino)piperidin-1-yl)ethyl)-1,2-dihydroquinoline-4-carboxamide hydrochloride]
FDA209P
  MIC: 0.125 µg/mL

## CNC(=O)c1cc(=O)n(CCN2CCC(NCc3ccc(C(F)(F)F)c(F)c3)CC2)c2cc(OC)ccc12 [Example 182, 1-(2-(4-((3-fluoro-4-(trifluoromethyl)benzyl)amino)piperidin-1-yl)ethyl)-7-methoxy-N-methyl-2-oxo-1,2-dihydroquinoline-4-carboxamide]
[1]
  MIC: 0.0625 µg/mL (≈ 0.117 µM)

## CCc1ccc(CNC2CCN(CCn3c(=O)cnc4ccc(OC)cc43)CC2)cc1 [Example 353, 1-(2-(4-(4-ethylbenzylamino)piperidin-1-yl)ethyl)-7-methoxyquinoxalin-2(1H)-one hydrochloride]
FDA209P
  MIC: 0.0156 µg/mL

## COc1ccc2c(C)cc(=O)n(CCN3CCC(NCC(=O)Nc4ccccn4)CC3)c2c1 [Example 18, N-(pyridin-2-yl)-N^2-(1-(2-(7-methoxy-4-methyl-2-oxoquinolin-1(2H)-yl)ethyl)piperidin-4-yl)glycinamide]
[1]
  MIC: 0.25 µg/mL (≈ 0.556 µM)

## Cc1cc(=O)n(CCN2CCC(NCc3ccc4c(c3)OCCO4)CC2)c2cc(-n3ccnc3)ccc12 [Example 125, 1-(2-(4-((2,3-dihydro-1,4-benzodioxin-6-ylmethyl)amino)piperidin-1-yl)ethyl)-7-(1H-imidazol-1-yl)-4-methylquinolin-2(1H)-one hydrochloride]
FDA209P
  MIC: 0.0313 µg/mL

## CNC(=O)c1cc(OC)cc2c1ccc(=O)n2CCN1CCC(NCc2ccc3c(c2)OCCO3)CC1 [Example 186, 1-(2-(4-((2,3-dihydro-1,4-benzodioxin-6-ylmethyl)amino)piperidin-1-yl)ethyl)-7-methoxy-N-methyl-2-oxo-1,2-dihydroquinoline-5-carboxamide hydrochloride]
FDA209P
  MIC: 0.25 µg/mL

## COc1ccc2ncc(=O)n(CCN3CCC(NCc4ccc5ccccc5c4)CC3)c2c1 [Example 356, 7-methoxy-1-(2-(4-((naphthalen-2-yl)methylamino)piperidin-1-yl)ethyl)quinoxalin-2(1H)-one hydrochloride]
FDA209P
  MIC: 0.0156 µg/mL

## CNC(=O)c1cc(=O)n(CCN2CCC(NCc3cc4sccc4s3)CC2)c2cc(OC)ccc12 [Example 342, 7-methoxy-N-methyl-2-oxo-1-(2-(4-((thieno[3,2-b]thiophen-2-yl)methylamino)piperidin-1-yl)ethyl)-1,2-dihydroquinoline-4-carboxamide hydrochloride]
FDA209P
  MIC: 0.0313 µg/mL

## COc1cccc2ccc(=O)n(CCN3CCC(NCc4ccc5c(c4)OCCO5)CC3)c12 [Example 244, 1-(2-(4-((2,3-dihydro-1,4-benzodioxin-6-ylmethyl)amino)piperidin-1-yl)ethyl)-8-methoxyquinolin-2(1H)-one hydrochloride]
FDA209P
  MIC: 0.0625 µg/mL

## Nc1cc(=O)n(CCN2CCC(NCc3ccc4c(c3)OCCO4)CC2)c2ccccc12 [Example 97, 4-amino-1-(2-(4-((2,3-dihydro-1,4-benzodioxin-6-ylmethyl)amino)piperidin-1-yl)ethyl)-quinolin-2(1H)-one hydrochloride]
FDA209P
  MIC: 0.125 µg/mL

## CCOc1ccc2c(C)cc(=O)n(CCN3CCC(NCc4ccc5c(c4)OCCO5)CC3)c2c1 [Example 104, 1-(2-(4-((2,3-dihydro-1,4-benzodioxin-6-ylmethyl)amino)piperidin-1-yl)ethyl)-7-ethoxy-4-methylquinolin-2(1H)-one hydrochloride]
FDA209P
  MIC: 0.0625 µg/mL

## O=C1CSc2cc(Cl)c(CNC3CCN(CCn4c(=O)cnc5ccc(F)cc54)CC3)nc2N1 [Example 368, 1-(2-(4-((7-chloro-3-oxo-3,4-dihydro-2H-pyrido[3,2-b][1,4]thiazin-6-yl)methylamino)piperidin-1-yl)ethyl)-7-fluoroquinoxalin-2(1H)-one hydrochloride]
FDA209P
  MIC: 0.0156 µg/mL

## O=c1cnc2ccc(F)cc2n1CCN1CCC(NCc2cc3ccccc3s2)CC1 [Example 349, 1-(2-(4-((benzo[b]thiophen-2-yl)methylamino)piperidin-1-yl)ethyl)-7-fluoroquinoxalin-2(1H)-one hydrochloride]
FDA209P
  MIC: 0.0156 µg/mL

## Cc1cc(=O)n(CCN2CCC(NCc3ccc4c(c3)OCCO4)CC2)c2cc(OC3CC3)ccc12 [Example 129, 7-cyclopropoxy-1-(2-(4-((2,3-dihydro-1,4-benzodioxin-6-ylmethyl)amino)piperidin-1-yl)ethyl)-4-methylquinolin-2(1H)-one hydrochloride]
FDA209P
  MIC: 0.0625 µg/mL
